According to patent US12421210B2, “Fused bicyclic heterocycles as therapeutic agents” (NEW YORK UNIVERSITY, priority 2018, dated 2025):
Where two headings read alike, the source gives them in different places.

Target: human NAMPT enzyme (His-hNAMPT) (Homo sapiens (Human), UniProt P43490)
Test: NAMPT enzymatic inhibition assay (fluorescence, NADH product)
Type: biochemical
Method: The compounds were then diluted 20 fold in an intermediate dilution to 5% DMSO and water. Finally 10 μL of each compound was added to the assay plate, in duplicate, with highest concentration at 30 μM and the lowest at 0.001 μM in a final volume of 50 μL and 1% DMSO concentration. Each assay also tested, in parallel, two reference compounds, FK866 and GMX1778, with highest concentration at 10 μM and lowest at 0.0003 μM. 200 ng of human NAMPT enzyme (His-hNAMPT obtained from E. coli expression system) diluted in […] (tris-buffered saline-Polysorbate 20) 1× was added to each well in a volume of 10 μL and the compounds were incubated with the enzyme at room temperature for 20 minutes. After the incubation, 30 μL of master mixture were added to each well. The master mixture contained: 50 mM Tris-HCl, pH 8.0, 12.5 mM MgCl2, 20 μM nicotinamide, 40 μM phosphoribosyl pyrophosphate (PRPP), 20 μM adenosine triphosphate (ATP), 30 μg/mL of alcohol dehydrogenase, 10 μg/mL of NMNAT, 1.5% alcohol, 1 mM dithiothreitol (DTT), 0.02% bovine serum albumin (BSA), 0.01% Tween 20. The reaction was performed at 30° C. for 60 minutes. Fluorescence intensity was measured at an excitation of 340 nm and an emission of 460 nm using a Tecan Infinite M1000 microplate reader. The fluorescence values indicated increase of NADH product.
Enzyme activity assay was performed in duplicate at each concentration. The fluorescence data was analyzed and compared. In the absence of the compound, the intensity (Ce) in each data set was defined as 100% activity. In the absence of enzyme, the intensity (C0) in each data set was defined as 0% activity. The percent activity in the presence of each compound was calculated according to the following equation: % activity=(C−C0)/(Ce−C0), where C is the fluorescence in the presence of the compound.
The % activity vs. compound concentrations were then plotted using non-linear regression analysis of Sigmoidal dose-response curve generated with the equation Y=B+(T−B)/1+10^((Log EC50-X)×Hill Slope), where Y is percent activity, B is minimum percent activity, T is maximum percent activity, X is logarithm of compound and Hill Slope=slope factor or Hill coefficient.

[1] = [BPS], read-out: NAMPT IC50 (μM) [BPS]
[2] = [HDB], read-out: NAMPT IC50 (μM) [HDB]

Sequence of human NAMPT enzyme (His-hNAMPT) (P43490 whole entry): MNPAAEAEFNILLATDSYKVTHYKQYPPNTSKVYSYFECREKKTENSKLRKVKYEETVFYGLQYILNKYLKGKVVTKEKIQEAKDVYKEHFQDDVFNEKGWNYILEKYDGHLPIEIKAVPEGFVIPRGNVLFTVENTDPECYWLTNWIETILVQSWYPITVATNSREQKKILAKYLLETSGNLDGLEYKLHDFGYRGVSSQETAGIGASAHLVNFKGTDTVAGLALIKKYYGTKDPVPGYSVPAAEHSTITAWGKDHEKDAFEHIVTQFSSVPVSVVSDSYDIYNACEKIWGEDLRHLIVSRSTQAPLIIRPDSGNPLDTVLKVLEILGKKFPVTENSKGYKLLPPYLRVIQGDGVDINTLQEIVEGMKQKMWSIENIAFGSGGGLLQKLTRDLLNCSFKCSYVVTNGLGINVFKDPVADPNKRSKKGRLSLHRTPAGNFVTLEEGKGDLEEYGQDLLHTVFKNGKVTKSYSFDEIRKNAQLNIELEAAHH

Row | IC50 [1] [µM] | IC50 [2] [µM] | Compound
1 | 0.01 to 0.49 | 0.01 to 0.49 | O=C(/C=C/c1cccnc1)NCC[C@H]1[C@@H]2CN(c3ccccc3)C(=O)[C@H]12 (racemic) [Example 256 racemic, (E)-N-(2-((1R,5S,6S)-2-oxo-3-phenyl-3-azabicyclo[3.1.0]hexan-6-yl)ethyl)-3-(pyridin-3-yl)acrylamide and (E)-N-(2-((1S,5R,6R)-2-oxo-3-phenyl-3-azabicyclo[3.1.0]hexan-6-yl)ethyl)-3-(pyridin-3-yl)acrylamide]
2 | 0.01 to 0.49 |  | O=C(/C=C/c1cccnc1)NCC[C@@H]1[C@H]2CN(Cc3ccccc3)C(=O)[C@@H]12 (racemic) [Example 257, (E)-N-(2-((1R,5S,6S)-3-benzyl-2-oxo-3-azabicyclo[3.1.0]hexan-6-yl)ethyl)-3-(pyridin-3-yl)acrylamide and (E)-N-(2-((1S,5R,6R)-3-benzyl-2-oxo-3-azabicyclo[3.1.0]hexan-6-yl)ethyl)-3-(pyridin-3-yl)acrylamide]
3 | 0.01 to 0.49 |  | Nc1ccc(/C=C/C(=O)NCC[C@@H]2[C@H]3CN(Cc4ccccc4)C(=O)[C@@H]23)cn1 (racemic) [Example 258, (E)-3-(6-aminopyridin-3-yl)-N-(2-((1R,5S,6S)-3-benzyl-2-oxo-3-azabicyclo[3.1.0]hexan-6-yl)ethyl)acrylamide and (E)-3-(6-aminopyridin-3-yl)-N-(2-((1S,5R,6R)-3-benzyl-2-oxo-3-azabicyclo[3.1.0]hexan-6-yl)ethyl)acrylamide]
4 | 0.01 to 0.49 |  | Nc1ccc(/C=C/C(=O)NCC[C@@H]2[C@H]3CN(c4ccccc4)C(=O)[C@@H]23)cn1 (racemic) [Example 259, (E)-3-(6-aminopyridin-3-yl)-N-(2-((1S,5R,6R)-2-oxo-3-phenyl-3-azabicyclo[3.1.0]hexan-6-yl)ethyl)acrylamide and (E)-3-(6-aminopyridin-3-yl)-N-(2-((1R,5S,6S)-2-oxo-3-phenyl-3-azabicyclo[3.1.0]hexan-6-yl)ethyl)acrylamide]
5 | 0.5 to 0.99 |  | O=C(NCC[C@@H]1[C@H]2CN(c3ccccc3)C(=O)[C@@H]12)c1cc2ccncc2o1 (racemic) [Example 260, N-(2-((1R,5S,6S)-2-oxo-3-phenyl-3-azabicyclo[3.1.0]hexan-6-yl)ethyl)furo[2,3-c]pyridine-2-carboxamide and N-(2-((1S,5R,6R)-2-oxo-3-phenyl-3-azabicyclo[3.1.0]hexan-6-yl)ethyl)furo[2,3-c]pyridine-2-carboxamide]
6 |  | 0.01 to 0.49 | O=C(/C=C/c1cccnc1)NCC[C@@H]1[C@H]2CN(c3cccc(C(F)(F)F)c3)C(=O)[C@@H]12 (racemic) [Example 262, (E)-N-(2-((1R,5S,6S)-2-oxo-3-(3-(trifluoromethyl)phenyl)-3-azabicyclo[3.1.0]hexan-6-yl)ethyl)-3-(pyridin-3-yl)acrylamide and (E)-N-(2-((1S,5R,6R)-2-oxo-3-(3-(trifluoromethyl)phenyl)-3-azabicyclo[3.1.0]hexan-6-yl)ethyl)-3-(pyridin-3-yl)acrylamide]
7 |  | 0.01 to 0.49 | Nc1ccc(/C=C/C(=O)NCC[C@@H]2[C@H]3CN(c4cccc(C(F)(F)F)c4)C(=O)[C@@H]23)cn1 (racemic) [Example 263, (E)-3-(6-aminopyridin-3-yl)-N-(2-((1R,5S,6S)-2-oxo-3-(3-(trifluoromethyl)phenyl)-3-azabicyclo[3.1.0]hexan-6-yl)ethyl)acrylamide and (E)-3-(6-aminopyridin-3-yl)-N-(2-((1S,5R,6R)-2-oxo-3-(3-(trifluoromethyl)phenyl)-3-azabicyclo[3.1.0]hexan-6-yl)ethyl)acrylamide]
8 |  | 0.01 to 0.49 | O=C(NCC[C@@H]1[C@H]2CN(c3ccc(F)cc3)C(=O)[C@@H]12)N1Cc2ccccc2C1 (racemic) [Example 266, N-(2-((1R,5S,6S)-3-(4-fluorophenyl)-2-oxo-3-azabicyclo[3.1.0]hexan-6-yl)ethyl)isoindoline-2-carboxamide and N-(2-((1S,5R,6R)-3-(4-fluorophenyl)-2-oxo-3-azabicyclo[3.1.0]hexan-6-yl)ethyl)isoindoline-2-carboxamide]
9 |  | 0.01 to 0.49 | O=C(NCC[C@H]1[C@@H]2CN(c3ccccc3)C(=O)[C@H]12)c1cc(-c2cccnc2)on1 (stereo in doubt) [Example 261, N-(2-((1R,5S,6S)-2-oxo-3-phenyl-3-azabicyclo[3.1.0]hexan-6-yl)ethyl)-5-(pyridin-3-yl)isoxazole-3-carboxamide/N-(2-((1S,5R,6R)-2-oxo-3-phenyl-3-azabicyclo[3.1.0]hexan-6-yl)ethyl)-5-(pyridin-3-yl)isoxazole-3-carboxamide]
10 |  | 0.01 to 0.49 | O=C(NCC[C@H]1[C@@H]2CN(c3ccc(F)cc3)C(=O)[C@H]12)c1cc(-c2cccnc2)on1 (stereo in doubt) [Example 265, N-(2-((1R,5,6S)-3-(4-fluorophenyl)-2-oxo-3-azabicyclo[3.1.0]hexan-6-yl)ethyl)-5-(pyridin-3-yl)isoxazole-3-carboxamide and N-(2-((1S,5R,6R)-3-(4-fluorophenyl)-2-oxo-3-azabicyclo[3.1.0]hexan-6-yl)ethyl)-5-(pyridin-3-yl)isoxazole-3-carboxamide]
11 | 1 to 29 |  | CC(C)(C)OC(=O)N1C[C@H]2CCC(CNC(=O)NCc3cccnc3)C[C@H]2C1 (stereo in doubt) [Example 269, tert-butyl 5-((3-(pyridin-3-ylmethyl)ureido)methyl)hexahydro-1H-isoindole-2(3H)-carboxylate]
12 | 0.01 to 0.49 |  | CC(C)(C)OC(=O)N1C[C@H]2CCC(CNC(=O)N3Cc4ccncc4C3)C[C@H]2C1 (stereo in doubt) [Example 270, tert-butyl 5-((2,3-dihydro-1H-pyrrolo[3,4-c]pyridine-2-carboxamido)methyl)hexahydro-1H-isoindole-2(3H)-carboxylate]

Further lines, the molecule ahead of its results:

Row | Compound | IC50 [1] [µM] | IC50 [2] [µM]
13 | CC1(OC(=O)N2C[C@@H]3[C@@H](CCNC(=O)C4C[C@@H]4c4cccnc4)[C@@H]3C2)COC1 (mixture of isomers) [Example 53, (1R,5S,6s)-3-methyloxetan-3-yl 6-(2-((1S,2S)-2-(pyridin-3-yl)cyclopropanecarboxamido)ethyl)-3-azabicyclo[3.1.0]hexane-3-carboxylate and (1R,5S,6s)-3-methyloxetan-3-yl 6-(2-((1R,2R)-2-(pyridin-3-yl)cyclopropanecarboxamido)ethyl)-3-azabicyclo[3.1.0]hexane-3-carboxylate] | 0.01 to 0.49 | 
14 | O=C(/C=C/c1cccnc1)NCC[C@@H]1[C@H]2CN(c3ccc(F)cc3)C(=O)[C@@H]12 (mixture of isomers) [Example 264, (E)-N-(2-((1R,5S,6S)-3-(4-fluorophenyl)-2-oxo-3-azabicyclo[3.1.0]hexan-6-yl)ethyl)-3-(pyridin-3-yl)acrylamide and (E)-N-(2-((1S,5R,6R)-3-(4-fluorophenyl)-2-oxo-3-azabicyclo[3.1.0]hexan-6-yl)ethyl)-3-(pyridin-3-yl)acrylamide] |  | 0.01 to 0.49
15 | CC(C)(C)OC(=O)N1C[C@@H]2[C@@H](CCNC(=O)/C=C/c3cccnc3)[C@@H]2C1 [Example 1, (1R,5S,6s)-tert-butyl 6-(2-((E)-3-(pyridin-3-yl)acrylamido)ethyl)-3-azabicyclo[3.1.0]hexane-3-carboxylate] | < 0.01 | 
16 | CC(C)(C)OC(=O)N1C[C@@H]2[C@@H](CCNC(=O)COc3cccnc3)[C@@H]2C1 [Example 2, (1R,5S,6s)-tert-butyl 6-(2-(2-(pyridin-3-yloxy)acetamido)ethyl)-3-azabicyclo[3.1.0]hexane-3-carboxylate] | 0.01 to 0.49 | 
17 | CC(C)(C)OC(=O)N1C[C@@H]2[C@@H](CCNC(=O)c3cc4ccncc4s3)[C@@H]2C1 [Example 3] | 0.01 to 0.49 | 
18 | CC(C)(C)OC(=O)N1C[C@@H]2[C@@H](CCNC(=O)/C=C/c3ccc(N)nc3)[C@@H]2C1 [Example 4, (1R,5S,6s)-tert-butyl 6-(2-((E)-3-(6-aminopyridin-3-yl)acrylamido)ethyl)-3-azabicyclo[3.1.0]hexane-3-carboxylate] | 0.01 to 0.49 | 
19 | CC(C)(C)OC(=O)N1C[C@@H]2[C@@H](CCNC(=O)c3cc4ccncc4o3)[C@@H]2C1 [Example 5] | 0.01 to 0.49 | 
20 | CC(C)(C)OC(=O)N1C[C@@H]2[C@@H](CCNC(=O)c3ccc4sccc4c3)[C@@H]2C1 [Example 6, (1R,5S,65s)-tert-butyl 6-(2-(benzo[b]thiophene-5-carboxamido)ethyl)-3-azabicyclo[3.1.0]hexane-3-carboxylate] | 0.01 to 0.49 | 
21 | CC(C)(C)OC(=O)N1C[C@@H]2[C@@H](CCNC(=O)c3ccc4nccn4c3)[C@@H]2C1 [Example 7, (1R,5S,6s)-tert-butyl 6-(2-(imidazo[1,2-a]pyridine-6-carboxamido)ethyl)-3-azabicyclo[3.1.0]hexane-3-carboxylate] | 0.01 to 0.49 | 
